This is an account of results in US6500817B1, “Thiazolyl urea derivatives and their utilization as antiviral agents” (Bayer Aktiengesellschaft, priority 1999, dated 2002).

pIC50: −log10 of the molar value. Like-named read-outs stand apart in the source and are kept apart here.

In general, melting point refers to the temperature of the solid-liquid transition. Usually ED50 stands for the dose that gives a 50% effect, or the effect in half of the subjects.

One data set concerns HSV-2 G. As to the kind of experiment: anti-HSV screening test (cytopathogenic effect, fluorescein diacetate fluorescence readout) in Vero cells. Type of data set: cell-based. To be noted: read-out: IC50 HSV-2 G/Vero. On the procedure:
(§1) HSV (HSV-1 Walki, HSV-1F or HSV-2G) was replicated on Vero cells (ATCC CCL-81) under the following conditions: the cells were grown in M199 medium (5% fetal calf serum, 2 mM glutamine, 100 IU/ml penicillin, 100 μg/ml streptomycin) in cell culture bottles at 37° C. and 5% CO2. The cells were split 1:4 on each of two occasions each week. For the infection, the medium was removed, and the cells were washed with Hank's solution, detached with 0.05% trypsin, 0.02% EDTA (Seromed L2143) and incubated at a density of 4×10^5 cells per ml under the conditions mentioned above for 24 hours. The medium was then removed, and the virus solution was added at an m.o.i. of <0.05 in a volume of 2 ml per 175 cm^2 of surface area. After incubation under the conditions mentioned for one hour, the medium was made up to a volume of 50 ml per 175 cm^2 bottle. […] The virus was released by freezing (−80° C.) and thawing (37° C.) twice. The cell debris was removed by centrifugation (300 g, 10 min, 4° C.) and the supernatant was frozen in aliquots at −80° C.
(§2) The anti-HSV effect was determined in a screening test system in 96-well microtitre plates with the assistance of various cell lines of neuronal, lymphoid and epithelial origin, such as, for example, Vero (African green monkey kidney cell line), MEF (murine embryonic fibroblasts), HELF (human embryonic fibroblasts), NT2 (human neuronal cell line) or Jurkat (human lymphoid T-cell line).
(§3) The substances dissolved (50 mM) in DMSO (dimethyl sulphoxide) are investigated on microtitre plates (for example 96-well MTP) in final concentrations of 250-0.5 μM (micromolar) in duplicate determinations (4 substances/plate). For potent substances, the dilutions are continued over several plates as far as 0.5 pM (picomolar). Toxic and cytostatic effects of the substance are also recorded. After the appropriate dilutions of the substance (1:2) on the microtitre plate, a suspension of cells (1×10^4 cells per well) such as, for example, Vero cells in M199 (medium 199) with 5% fetal calf serum, 2 mM glutamine and optionally 100 IU/ml penicillin and 100 μg/ml streptomycin or MEF cells in EMEM (Eagle's minimum essential medium) with 10% fetal calf serum, 2 mM glutamine and optionally 100 IU/ml penicillin and 100 μg/ml streptomycin, or HELF cells in EMEM with 10% fetal calf serum, 2 mM glutamine and optionally 100 IU/ml penicillin and 100 μg/ml streptomycin, or NT2 and Jurkat cells in DMEM ([…] glucose plus pyridoxine) with 10% fetal calf serum, 2 mM glutamine, 1 mM sodium pyruvate, nonessential amino acids and optionally 100 IU/ml penicillin and 100 μg/ml streptomycin is put in each well, and the cells in the relevant wells are infected with an appropriate amount of virus (HSV-1 F or HSV-2 G with an m.o.i (multiplicity of infection) of 0.0025 for HELF, Vero and MEF cells and with an m.o.i of 0.1 for NT2 and Jurkat cells). The plates are then incubated at 37° C. in a CO2 incubator (5% CO2) for several days. […] The plates are initially evaluated optically using a microscope and then analysed with a fluorescent dye. For this purpose, the cell culture supernatant is aspirated out of all the wells of the MTP and charged with 200 μl of PBS washing solution.

The subject of the next data set is HSV-1 F. The data set is described as above. Format: cell-based. To be noted: read-out: IC50 HSV-1 F/Vero. On the procedure: as §1, §2, §3
For the next data set, the system named is HSV. Nature of the data set: in vivo effect: survival of intranasally HSV-infected mice. Set-up: species or system strain BALB/cABom. To be noted: Mus musculus; female BALB/cABom mice, intranasal infection 5×10^4 pfu; treatment from 6 hours after infection, 3 times a day for 5 days; from graphs of survival; read-out: ED50 (50% of the animals survive at this dose). On the procedure:
6-week old female mice, strain BALB/cABom, were purchased from a commerical breeder (Bomholtgard Breeding and Research Centre Ltd.).
The animals were anaesthetized with diethyl ether (Merck) in a sealed glass vessel. 50 μl of a dilution of the virus stock (infectious dose 5×10^4 pfu) were introduced into the nose of the anaesthetized animals with an Eppendorf pipette. This infectious dose leads to death of 90-100% of the animals after an average of between 5 and 8 days due to a generalized infection with prominent respiratory and central nervous symptoms.
6 hours after the infection, the animals were treated with doses of 0.1-100 mg/kg of body weight 3 times a day at 7.00 h, 14.00 h and 19 h over a period of 5 days. The substances were dissolved in DMSO and resuspended in Tylose/PBS (Hoechst) (final concentration 1.5% DMSO, 0.5% Tylose in PBS).
After the last administration, the animals were observed further and the times of death were recorded.

Where [1] appears, read: Human alphaherpesvirus 2, Vero cells infected with HSV-2 G, m.o.i. 0.0025, half-maximum fluorescence intensity in relation to the uninfected cell control.
Where [2] appears, read: Human alphaherpesvirus 1, Vero cells infected with HSV-1 F, m.o.i. 0.0025, half-maximum fluorescence intensity in relation to the uninfected cell control.

`CNS(=O)(=O)c1sc(N(C)C(=O)Nc2ccc(-c3ccccc3)cc2)nc1C` [Example 123] showed a melting point of 210 °C. The pIC50 with HSV-2 G (setting [1]) was 8.30. In addition, in the data set with HSV-1 F (setting [2]), the pIC50 was 9.00.
Turning to `CNS(=O)(=O)c1sc(N(C)C(=O)Nc2ccc(N3CCOCC3)cc2)nc1C` [Example 43], the 50% effective dose (ED50) in the data set on HSV lay within 30 to 40 mg/kg. Also, the pIC50 with HSV-2 G (Human alphaherpesvirus 2, Vero) was 5.82; in the data set on HSV-1 F (Human alphaherpesvirus 1, Vero), 6.30.
`CNS(=O)(=O)c1sc(N(C)C(=O)Nc2ccc(N3CCCC3)cc2)nc1C` [Example 94]: the pIC50 was 7.30 with HSV-2 G (setting [1]) and 7.70 with HSV-1 F (setting [2]).
The corresponding values for `CCOc1ccc(NC(=O)N(CCN(C)C)c2nc(C)c(S(=O)(=O)NC)s2)cc1` [Example 2, 2-{[2-(Dimethylamino)ethyl][(4-ethoxyanilino)carbonyl]amino}-N,4-dimethyl-1,3-thiazole-5-sulphonamide] are 6.00 and 6.70.
